The test system of data set [1] is postoperative pain. Conditions: oral vs intramuscular; cited from earlier work.
The subject of data set [2] is hospitalized patients with postoperative pain. Conditions: single oral doses, 128 hospitalized patients, evaluated each hour for 6 hours; Clin Pharmacol Ther 1986; 39:295-9; cited from earlier work.
In data set [3] the test system is SD rats. Nature of the data set: Paw pressure test (Randall and Selitto), analgesic effect after oral administration. It counts as in vivo, Sprague-Dawley rats. The following applies: alone or combined, mean ± SE; for AUG / AUC: analgesic effect AUC; for AUC: 0-300 min; for Maximum Peak (% of MPA): cut-off 750 g; for Duration of action (min) (20% of MPA): time over 20% MPA; for Onset of action (min) (20% of MPA): time up to 20% MPA. How it is done:
Male Sprague-Dawley rats weights between 260 and 330 g were purchased from BioLASCO (Taipei, Taiwan). The rats were housed in a controlled condition (free access to food and water); 12-h light-dark cycle, temperature 22° C. and humidity 60%. All experiments were conducted in accordance with the IACUC's Protocol for the Care and Use of Animals and to treat the animals in an ethical and humane manner consistent with the law.
Analgesic effects studies were used to the paw pressure test by Randall and Selitto. Nociceptive threshold is expressed in grams and measured with an analgesimeter (IITC Inc. Life Science, CA), were applied to the left hind paw of rats. All animals were tested at 15, 30, and 45 min prior to medication, to obtain an average baseline. Results were expressed as a percentage of the maximum possible effect (% MPE), according to the formula % MPA=(Test-Baseline)/(Cutoff-Baseline)×100, cut-off value: 750 g. AUC (area under curve) is independent of each individual, at each time point detection value minus own baseline and integral, then calculated the average. Negative values (% MPA and AUC) are considered as zero. The maximum peak of % MPA and Tmax are independent of each individual, then calculated the average. With 20% MPA as a baseline of valid analgesic effect, analysis of onset time of action up to 20% MPA and duration time of action over 20% MPA. Pharmacodynamic studies were conducted to compare in rats the analgesic effects of oral administration of SDE 75 mg/kg alone. AAP product (100 mg/kg) alone and combinations of SDE 75 mg/kg plus AAP product (100 mg/kg) or NAL 60 mg/kg alone. AAP product (100 mg/kg) alone and combinations of NAL 60 mg/kg plus AAP product (100 mg/kg). The anti-nociceptive thresholds were measured at 30, 60, 90, 120, 150, 180, 210, 240, 270, and 300 min after drug administration.

The conditions of data set [4]: conventional form, Br J Clin Pharmacol 1988, 25:264-8; cited from earlier work.
[5] abbreviates: Test 2, NAL 60 mg/kg, AAP product 100 mg/kg, MPA greater than 50%.
The mark [6] stands for this setting: Test 2, NAL 60 mg/kg, AAP product 100 mg/kg.
Where [7] appears, read: Test 1, AAP product 100 mg/kg, SDE 75 mg/kg.
The mark [8] stands for this setting: Test 1, AAP product 100 mg/kg, SDE 75 mg/kg, time of maximum % MPA.

This is an account of results in patent US20200069675A1, “PHARMACEUTICAL PREPARATIONS OF SEBACOYL DINALBUPHINE AND ACETAMINOPHEN AND METHODS FOR TREATING PAIN” (International Education Foundation, priority 2018, published 2020).

Consider `Oc1ccc2c3c1O[C@H]1[C@@H](O)CC[C@@]4(O)[C@@H](C2)N(CC2CCC2)CC[C@]314` [NAL, nalbuphine], for which the “potency of oral relative to intramuscular nalbuphine as postoperative analgesic” value in data set [1] is “one quarter to one fifth as potent as intramuscular nalbuphine”. For the same compound, the “analgesic effect (measures of total and peak analgesia)” value in data set [2] is listed as “significantly superior to placebo”. For the same compound, in data set [3] (setting [5]), the “Duration of action” value is 16.61 ± 3.92 min and the “Onset of action” value came to 24.36 ± 0.86 min. In data set [3] (setting [6]), the “AUG” value amounted to 298.9 ± 13.98 g·h, the “% MPA (Maximum Peak)” value came to 57.87 ± 2.77 % MPA and the “Tmax” value stood at 30 ± 0 min. Also, the “bioavailability through oral administration” value in data set [4] is listed as “less than 5%”.

For the compound `CC(=O)Nc1ccc(O)cc1` [AAP, acetaminophen], in data set [2], the “analgesic effect (measures of total and peak analgesia)” value was “significantly superior to placebo”. Further, in data set [3] (setting [7]), the “AUC” value came out at 309.3 ± 68.5 g·h, the “Maximum Peak (% of MPA)” value was 32.4 ± 2.7 % of MPA, the “Duration of action (min) (20% of MPA)” value is on record as 77.5 ± 13.5 min and the “Onset of action (min) (20% of MPA)” value stood at 46.7 ± 17.5 min. Moreover, in data set [3] (setting [8]), the “Tmax” value was 50.0 ± 10.0 min. In data set [3] (setting [6]), the “AUG” value turned out to be 274.83 ± 51.94 g·h, the “% MPA (Maximum Peak)” value is listed as 38.26 ± 7.2 % MPA and the “Tmax” value was determined as 45 ± 8.66 min.

As for `O=C(CCCCCCCCC(=O)Oc1ccc2c3c1O[C@H]1[C@@H](O)CC[C@@]4(O)[C@@H](C2)N(CC2CCC2)CC[C@]314)Oc1ccc2c3c1O[C@H]1[C@@H](O)CC[C@@]4(O)[C@@H](C2)N(CC2CCC2)CC[C@]314` [SDE, sebacoyl dinalbuphine ester], in data set [3] (setting [7]), the “AUC” value came out at 359.4 ± 34.8 g·h, the “Maximum Peak (% of MPA)” value is 46.6 ± 3.8 % of MPA, the “Duration of action (min) (20% of MPA)” value is listed as 99.8 ± 10.0 min and the “Onset of action (min) (20% of MPA)” value stood at 14.7 ± 1.3 min. In addition, the “Tmax” value in data set [3] (setting [8]) turned out to be 37.5 ± 3.9 min.
